Drawing on patent publication US7960556B2, “Thiadiazole derivatives for the treatment of neuro-degenerative diseases” (NV reMYND, priority 2006, dated 2011), this text covers EC50 and Emax for 26 compounds.

The subject of the experiment is α-synuclein cytotoxicity in M17-SYNwt cells. In words: α-synuclein cytotoxicity assay: LDH leakage from paraquat-treated M17-SYNwt neuroblastoma cells.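 On all read-outs here: paraquat at 32 mM co-added with compound, 40 h exposure, LDH activity released into the culture medium measured, references are DMSO-only cells and paraquat plus DMSO cells.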 The following applies: Homo sapiens, Neuroblastoma cell; for Emax: read-out: % Inhib. In general terms: Release of lactate dehydrogenase indicates damage to the cell membrane.

Description: An α-synuclein expression plasmid was constructed by sub-cloning the NcoI/XhoI fragment from 212T-SYN(WT) (Griffioen et al., Biochem Biophys Acta (2006) 1762(3):312-318) containing the cDNA of human wild type α-synuclein correspondingly into a standard mammalian expression vector pcDNA3.1 (Invitrogen) resulting into the plasmid pcDNA3.1-SYNwt. Plasmids pcDNA3.1 and pcDNA3.1-SYNwt were transfected to human neuroblastoma cells (ATCC No. CRL-2267) and independent clonal lines with the plasmids stably integrated into the genome were selected. […] Over-expression of α-synuclein in M17-SYNwt cell lines was confirmed by Western analysis.
Due to the high levels of α-synuclein M17-SYNwt cells are exquisitely sensitivity to paraquat, a well-known risk factor of synuclein-dependent neuronal degeneration. In degenerated or dead cells lactate dehydrogenase (LDH) is leaked out of the cells into the extracellular environment due to a loss of plasma-membrane integrity. This principle was used to determine cytotoxicity by quantifying the level of leaked LDH into the growth medium.
The detailed method for determining α-synuclein cytotoxicity was as follows: From appropriate precultures of M17 and M17-SYN cells were seeded at 50,000 cells/cm^2 in Optimem Reduced Serum without phenol red (available from InVitrogen, Cat. 31985-047) supplemented with 5% fetal calf serum, 1 mM sodium pyruvate, 1× non-essential amino acids, 500 μg/ml G418 0,5× antibiotic/antimycotic. After 3 hours of incubation at 37° C./5% CO2 paraquat was added to the cells (final concentration of 32 mM), together with the test compound and the cells were further incubated for 40 hours. Subsequently, LDH activity was determined using Promega Cytotox 96 Non-Radioactive cytotoxicity assay, (Cat. G1780) according the instructions of the supplier.
In these experiments, the control group consisted of M17-SYNwt cells treated with DMSO, the untreated paraquat group consisted of M17-SYNwt cells treated with paraquat and DMSO, and the treated paraquat group consisted of M17-SYNwt cells treated with paraquat and the test compound dissolved in DMSO.

Regarding `Cc1ccc(Cc2nsc(N3CCN(S(=O)(=O)c4cccc5ccccc45)CC3)n2)cc1` [compound 35, 1-[1-naphtylsulfonyl]-4-[3-(4-methylbenzyl)-1,2,4-thiadiazol-5-yl]piperazine], a half-maximal response (EC50) required 47.2 nM and the Emax was found to be 47%.

Regarding `Cc1ccc(Cc2nsc(N3CCN(S(=O)(=O)c4ccc(Cl)cc4)CC3)n2)cc1` [compound 66, 1-[4-chlorophenylsulfonyl]-4-[3-(4-methylbenzyl)-1,2,4-thiadiazol-5-yl]piperazine], the Emax turned out to be 81%. For the compound `O=C(NCCN1CCN(c2nc(Cc3ccccc3)ns2)CC1)c1cccc(F)c1` [compound 106, 3-fluoro-N-{2-[4-[3-benzyl-1,2,4-thiadiazol-5-yl]piperazin-1-yl]ethyl}benzamide], the Emax was determined as 49%. `Cc1ccc(Cc2nsc(N3CCN(C(=O)c4ccc(Cl)cc4)CC3)n2)cc1` [compound 155, 1-(4-chlorobenzoyl)-4-[3-(4-methylbenzyl)-1,2,4-thiadiazol-5-yl]piperazine]: the EC50 is 1640 nM and the Emax turned out to be 76%.

For the compound `O=C(Cc1ccccc1)NCCN1CCN(c2nc(Cc3ccc(F)cc3)ns2)CC1` [compound 108, 2-phenyl-N-{2-[4-[3-(4-fluorobenzyl)-1,2,4-thiadiazol-5-yl]piperazin-1-yl]ethyl}acetamide], the midpoint of the response, the EC50, lay at 2060 nM and the Emax was determined as 63%.

With `Cc1cccc(C)c1NC(=O)N1CCN(c2nc(Cc3ccc(F)cc3)ns2)CC1C` (centres unmarked) [compound 19, N-(2,6-dimethylphenyl)-4-[3-(4-fluorobenzyl)-1,2,4-thiadiazol-5-yl]-2-methylpiperazine-1-carboxamide], the EC50 is 200 nM and the Emax was 95%. Regarding `Cc1ccc(Cc2nsc(N3CCN(S(=O)(=O)c4ccc5ccccc5c4)CC3)n2)cc1` [compound 65, 1-[2-naphtylsulfonyl]-4-[3-(4-methylbenzyl)-1,2,4-thiadiazol-5-yl]piperazine], the EC50 was 39.3 nM and the Emax was 78%. On to `CC1CN(c2nc(Cc3ccc(F)cc3)ns2)CCN1C(=O)c1ccccc1` (centres unmarked) [compound 126, 1-benzoyl-4-[3-(4-fluorobenzyl)-1,2,4-thiadiazol-5-yl]-2-methylpiperazine], for which the midpoint of the response, the EC50, lay at 210 nM and the Emax was 63%.

Turning to `CC1CN(c2nc(Cc3ccc(F)cc3)ns2)CCN1C(=O)c1ccc(Br)cc1` (centres unmarked) [compound 135, 1-(4-bromobenzoyl)-4-[3-(4-fluorobenzyl)-1,2,4-thiadiazol-5-yl]-2-methylpiperazine], the EC50 amounted to 310 nM and the Emax is 73%.

For `O=S(=O)(c1cc(Cl)ccc1Cl)N1CCN(c2nc(Cc3ccc(Cl)cc3)ns2)CC1` [compound 39, 1-[2,5-dichlorophenylsulfonyl]-4-[3-(4-chlorobenzyl)-1,2,4-thiadiazol-5-yl]piperazine], a half-maximal effect (EC50) was put at 160 nM and the Emax was 25%.

Turning to `COc1ccc(S(=O)(=O)NCCNc2nc(Cc3cccc(OC)c3)ns2)cc1` [compound 209, 1-N-[4-methoxyphenylsulfonyl]-N′-[3-(3-methoxybenzyl)-1,2,4-thiadiazol-5-yl]-ethane-1,2-diamine], the response was half-maximal at 317 nM (EC50) and the Emax amounted to 100%.

For the compound `Fc1ccc(Cc2nsc(N3CCN(Cc4ccc5c(c4)OCO5)CC3)n2)cc1` [compound 114, 1-(1,3-benzodioxol-5-ylmethyl)-4-[3-(4-fluorobenzyl)-1,2,4-thiadiazol-5-yl]piperazine], the Emax turned out to be 86%.

Regarding `Cc1ccc(Cc2nsc(N3CCN(S(=O)(=O)c4ccc(C)cc4)C(C)C3)n2)cc1` (centres unmarked) [compound 50, 1-[4-methylphenylsulfonyl]-4-[3-(4-methylbenzyl)-1,2,4-thiadiazol-5-yl]-2-methylpiperazine], the Emax worked out at 105%. On to `COc1ccc(S(=O)(=O)N(C)CCN(C)c2nc(Cc3cccc(OC)c3)ns2)cc1` [compound 215, N′-[4-methoxyphenylsulfonyl]-N-[3-(3-methoxybenzyl)-1,2,4-thiadiazol-5-yl]-N,N′-dimethylethane-1,2-diamine], for which the midpoint of the response, the EC50, lay at 301 nM and the Emax is 105%.

As for `Cc1ccc(Cc2nsc(N3CCN(C(=O)c4ccc(F)cc4)C(C)C3)n2)cc1` (centres unmarked) [compound 151, 1-(4-fluorobenzoyl)-4-[3-(4-methylbenzyl)-1,2,4-thiadiazol-5-yl]-2-methylpiperazine], it took 1140 nM to reach a half-maximal effect (EC50) and the Emax was 73%. Take `COc1ccc(S(=O)(=O)N(C)CCNc2nc(Cc3cccc(OC)c3)ns2)cc1` [compound 214, N′-[4-methoxyphenylsulfonyl]-N-[3-(3-methoxybenzyl)-1,2,4-thiadiazol-5-yl]-N′-methylethane-1,2-diamine]: the EC50 came out at 498 nM and the Emax amounted to 95%. As to `O=C(NCCN1CCN(c2nc(Cc3ccc(F)cc3)ns2)CC1)c1ccc(Cl)cc1` [compound 97, 4-chloro-N-{2-[4-[3-(4-fluorobenzyl)-1,2,4-thiadiazol-5-yl]piperazin-1-yl]ethyl}benzamide], the concentration giving a half-maximal response (EC50) stood at 1290 nM and the Emax is 68%.

For the compound `O=C(NCCN1CCN(c2nc(Cc3ccc(F)cc3)ns2)CC1)NCc1ccccc1` [compound 110, N-benzyl-N′-{2-[4-[3-(4-fluorobenzyl)-1,2,4-thiadiazol-5-yl]piperazin-1-yl]ethyl}urea], the Emax was determined as 77%. For the compound `CC1CN(c2nc(Cc3ccc(F)cc3)ns2)CCN1C(=O)c1ccc2ccccc2c1` (centres unmarked) [compound 132, 1-(2-naphthoyl)-4-[3-(4-fluorobenzyl)-1,2,4-thiadiazol-5-yl]-2-methylpiperazine], the EC50 stood at 260 nM and the Emax stood at 74%. Regarding `COc1cc(NC(=O)N2CCN(c3nc(Cc4ccc(F)cc4)ns3)CC2C)cc(OC)c1` (centres unmarked) [compound 29, N-(3,5-dimethoxyphenyl)-4-[3-(4-fluorobenzyl)-1,2,4-thiadiazol-5-yl]-2-methylpiperazine-1-carboxamide], the Emax worked out at 51%. Still for that read-out and setting: for `Cc1ccc(Cc2nsc(N3CCN(S(=O)(=O)c4cccc(C(F)(F)F)c4)CC3)n2)cc1` [compound 62, 1-[3-trifluoromethylphenylsulfonyl]-4-[3-(4-methylbenzyl)-1,2,4-thiadiazol-5-yl]piperazine] the value was 45%; for `Cc1ccc(Cc2nsc(N3CCN(C(=O)c4ccccc4F)CC3)n2)cc1` [compound 175, 1-(2-fluorobenzoyl)-4-[3-(4-methylbenzyl)-1,2,4-thiadiazol-5-yl]piperazine], 78%.

`Cc1ccccc1NC(=O)N1CCN(c2nc(Cc3ccc(F)cc3)ns2)CC1C` (centres unmarked) [compound 10, N-(2-methylphenyl)-4-[3-(4-fluorobenzyl)-1,2,4-thiadiazol-5-yl]-2-methylpiperazine-1-carboxamide]: it took 600 nM to reach a half-maximal effect (EC50) and the Emax stood at 72%.

For `COc1ccc(CC(=O)N2CCN(c3nc(Cc4ccc(F)cc4)ns3)CC2C)cc1` (centres unmarked) [compound 4, 1-(4-methoxyphenylacetyl)-4-[3-(4-fluorobenzyl)-1,2,4-thiadiazol-5-yl]-2-methylpiperazine], it took 820 nM to reach a half-maximal effect (EC50) and the Emax was found to be 56%. As to `Fc1ccc(Cc2nsc(N3CCN(Cc4ccccc4)CC3)n2)cc1` [compound 113, 1-benzyl-4-[3-(4-fluorobenzyl)-1,2,4-thiadiazol-5-yl]piperazine], the EC50 came out at 1540 nM and the Emax amounted to 65%.

As to `COc1ccc(C(=O)N2CCN(c3nc(Cc4ccc(F)cc4)ns3)CC2C)c(OC)c1` (centres unmarked) [compound 136, 1-(2,4-dimethoxybenzoyl)-4-[3-(4-fluorobenzyl)-1,2,4-thiadiazol-5-yl]-2-methylpiperazine], the EC50 came to 340 nM and the Emax worked out at 83%.

The EC50 is the midpoint of the concentration-response curve.
